Assay results taken from the supplement of paper PMC7214452.

Experiments:
Assay in all cases: normalized area under the dose-response curve (viability relative to DMSO control) (fraction); higher = less sensitive (more viable cells)
Conditions in all cases: exposure time not given
[1] = tested on: SU-DHL2 (cancer type: DLBCL)
Description: (§1)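 25 myeloma and 15 non-Hodgkin lymphoma cell lines were exposed to each of 76 drugs as 7-point log dilutions (0.01 nM–10 µM) in duplicate. Viability was read with CellTiter-Glo and normalised to DMSO (0.1%) and staurosporine (10 µM) plate controls. Normalised AUC was calculated by the trapezoidal method relative to the negative control.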

JJN3 (cancer type: MM) = tested on: JJN3 (cancer type: MM)
Description: as §1

[2] = tested on: HuT 78 (cancer type: TCL)
Description: as §1

KMS26 (cancer type: MM) = tested on: KMS26 (cancer type: MM)
Description: as §1

[3] = tested on: KMS28BM (cancer type: MM)
Description: as §1

[4] = tested on: JeKo-1 (cancer type: Mantle)
Description: as §1

[5] = tested on: JVM2 (cancer type: Mantle)
Description: as §1

MM1.S (cancer type: MM) = tested on: MM1.S (cancer type: MM)
Description: as §1

KMS11 (cancer type: MM) = tested on: KMS11 (cancer type: MM)
Description: as §1

Se-Ax (cancer type: TCL) = tested on: Se-Ax (cancer type: TCL)
Description: as §1

[6] = tested on: OCI-MY7 (cancer type: MM)
Description: as §1

[7] = tested on: OCI-MY5/Vec (cancer type: MM)
Description: as §1

EJM (cancer type: MM) = tested on: EJM (cancer type: MM)
Description: as §1

[8] = tested on: KMS28PE (cancer type: MM)
Description: as §1

SKMM2 (cancer type: MM) = tested on: SKMM2 (cancer type: MM)
Description: as §1

[9] = tested on: Granta-519 (cancer type: Mantle)
Description: as §1

XG2 (cancer type: MM) = tested on: XG2 (cancer type: MM)
Description: as §1

[10] = tested on: NCI-H929 (cancer type: MM)
Description: as §1

[11] = tested on: OCI-MY5 (cancer type: MM)
Description: as §1

U266 (cancer type: MM) = tested on: U266 (cancer type: MM)
Description: as §1

[12] = tested on: OCI-LY19 (cancer type: DLBCL)
Description: as §1

OPM2 (cancer type: MM) = tested on: OPM2 (cancer type: MM)
Description: as §1

[13] = tested on: OCI-LY3 (cancer type: DLBCL)
Description: as §1

[14] = tested on: KMS12PE (cancer type: MM)
Description: as §1

My-La (cancer type: TCL) = tested on: My-La (cancer type: TCL)
Description: as §1

MM1.R (cancer type: MM) = tested on: MM1.R (cancer type: MM)
Description: as §1

[15] = tested on: SR-786 (cancer type: TCL)
Description: as §1

[16] = tested on: SU-DHL1 (cancer type: TCL)
Description: as §1

[17] = tested on: SU-DHL6 (cancer type: DLBCL)
Description: as §1

FR4 (cancer type: MM) = tested on: FR4 (cancer type: MM)
Description: as §1

[18] = tested on: OCI-LY1 (cancer type: DLBCL)
Description: as §1

[19] = tested on: OCI-MY5/CRBN (cancer type: MM)
Description: as §1

[20] = tested on: Mino (cancer type: Mantle)
Description: as §1

KMS18 (cancer type: MM) = tested on: KMS18 (cancer type: MM)
Description: as §1

KMS34 (cancer type: MM) = tested on: KMS34 (cancer type: MM)
Description: as §1

L363 (cancer type: MM) = tested on: L363 (cancer type: MM)
Description: as §1

[21] = tested on: RPMI 8226 (cancer type: MM)
Description: as §1

[22] = tested on: Karpas-299 (cancer type: TCL)
Description: as §1

AMO1 (cancer type: MM) = tested on: AMO1 (cancer type: MM)
Description: as §1

LP1 (cancer type: MM) = tested on: LP1 (cancer type: MM)
Description: as §1

| Compound | normalized area under the dose-response curve [1] | normalized area under the dose-response curve (JJN3 (cancer type: MM)) | normalized area under the dose-response curve [2] | normalized area under the dose-response curve (KMS26 (cancer type: MM)) | normalized area under the dose-response curve [3] | normalized area under the dose-response curve [4] | normalized area under the dose-response curve [5] | normalized area under the dose-response curve (MM1.S (cancer type: MM)) | normalized area under the dose-response curve (KMS11 (cancer type: MM)) | normalized area under the dose-response curve (Se-Ax (cancer type: TCL)) | normalized area under the dose-response curve [6] | normalized area under the dose-response curve [7] | normalized area under the dose-response curve (EJM (cancer type: MM)) | normalized area under the dose-response curve [8] | normalized area under the dose-response curve (SKMM2 (cancer type: MM)) | normalized area under the dose-response curve [9] | normalized area under the dose-response curve (XG2 (cancer type: MM)) | normalized area under the dose-response curve [10] | normalized area under the dose-response curve [11] | normalized area under the dose-response curve (U266 (cancer type: MM)) | normalized area under the dose-response curve [12] | normalized area under the dose-response curve (OPM2 (cancer type: MM)) | normalized area under the dose-response curve [13] | normalized area under the dose-response curve [14] | normalized area under the dose-response curve (My-La (cancer type: TCL)) | normalized area under the dose-response curve (MM1.R (cancer type: MM)) | normalized area under the dose-response curve [15] | normalized area under the dose-response curve [16] | normalized area under the dose-response curve [17] | normalized area under the dose-response curve (FR4 (cancer type: MM)) | normalized area under the dose-response curve [18] | normalized area under the dose-response curve [19] | normalized area under the dose-response curve [20] | normalized area under the dose-response curve (KMS18 (cancer type: MM)) | normalized area under the dose-response curve (KMS34 (cancer type: MM)) | normalized area under the dose-response curve (L363 (cancer type: MM)) | normalized area under the dose-response curve [21] | normalized area under the dose-response curve [22] | normalized area under the dose-response curve (AMO1 (cancer type: MM)) | normalized area under the dose-response curve (LP1 (cancer type: MM)) |
| --- | --- | --- | --- | --- | --- | --- | --- | --- | --- | --- | --- | --- | --- | --- | --- | --- | --- | --- | --- | --- | --- | --- | --- | --- | --- | --- | --- | --- | --- | --- | --- | --- | --- | --- | --- | --- | --- | --- | --- | --- |
| CC(C)C[C@H](NC(=O)[C@H](Cc1ccccc1)NC(=O)c1cnccn1)B(O)O [Bortezomib] | 0.0391 | 0.343 | 0.192 | 0.0685 | 0.0704 | 0.009 | 0.0575 | 0.09 | 0.131 | 0.102 | 0.08 | 0.015 | 0.0632 | 0.0881 | 0.212 | 0.0456 | 0.05 | 0.09 | 0.116 | 0.167 | 0.111 | 0.197 | 0.0249 | 0.26 | 0.23 | 0.06 | 0.285 | 0.1 | 0.536 | 0.7 | 0.0798 | 0.0146 | 0.0129 | 0.0645 | 0.196 | 0.0891 | 0.261 | 0.332 | 0.0751 | 0.255 |
| COc1cc(Nc2c(C#N)cnc3cc(OCCCN4CCN(C)CC4)c(OC)cc23)c(Cl)cc1Cl [Bosutinib] | 0.836 | 0.571 | 0.714 | 0.863 | 0.629 | 0.889 | 0.534 | 0.83 | 0.5 | 0.736 | 0.79 | 0.914 | 0.663 | 0.54 | 0.697 | 0.771 | 0.501 | 0.8 | 0.39 | 0.874 | 0.898 | 0.606 | 0.792 | 0.58 | 0.795 | 0.77 | 0.872 | 0.667 | 0.924 | 0.598 | 0.856 | 0.933 | 0.653 | 0.798 | 0.447 | 0.525 | 0.651 | 0.701 | 0.45 | 0.451 |
| COc1cc(N2CCC(N3CCN(C)CC3)CC2)ccc1Nc1ncc(Cl)c(Nc2ccccc2P(C)(C)=O)n1 [Brigatinib] | 0.936 | 0.527 | 0.524 | 0.611 | 0.539 | 0.815 | 0.855 | 0.46 | 0.466 | 0.748 | 0.83 | 0.785 | 0.55 | 0.191 | 0.789 | 0.84 | 0.745 | 0.39 | 0.574 | 0.5 | 0.803 | 0.179 | 0.921 | 0.79 | 0.76 | 0.51 | 0.556 | 0.123 | 0.891 | 0.723 | 0.989 | 0.835 | 0.863 | 0.469 | 0.308 | 0.538 | 0.351 | 0.504 | 0.525 | 0.598 |
| Nc1cc(C(F)(F)F)c(-c2cc(N3CCOCC3)nc(N3CCOCC3)n2)cn1 [Buparlisib] | 0.689 | 0.55 | 0.348 | 0.498 | 0.562 | 0.365 | 0.497 | 0.3 | 0.477 | 0.431 | 0.71 | 0.561 | 0.654 | 0.38 | 0.573 | 0.493 | 0.303 | 0.3 | 0.509 | 0.443 | 0.564 | 0.392 | 0.571 | 0.55 | 0.627 | 0.28 | 0.473 | 0.375 | 0.685 | 0.454 | 0.562 | 0.605 | 0.516 | 0.445 | 0.165 | 0.414 | 0.358 | 0.513 | 0.424 | 0.493 |
| Cc1noc2c1-c1ccccc1C(c1ccc(Cl)cc1)=N[C@H]2CC(N)=O [CPI0610] | 0.696 | 0.556 | 0.775 | 0.492 | 0.841 | 0.889 | 0.693 | 0.61 | 0.642 | 0.721 | 0.52 | 0.717 | 0.782 | 0.704 | 0.675 | 0.905 | 0.728 | 0.63 | 0.554 | 0.583 | 0.771 | 0.685 | 0.938 | 0.69 | 0.748 | 0.67 | 0.713 | 0.794 | 0.868 | 0.691 | 0.922 | 0.721 | 0.686 | 0.746 | 0.571 | 0.601 | 0.629 | 0.72 | 0.526 | 0.687 |
| COc1cc2nccc(Oc3ccc(NC(=O)C4(C(=O)Nc5ccc(F)cc5)CC4)cc3)c2cc1OC [Cabozantinib] | 0.917 | 0.706 | 0.762 | 0.94 | 0.793 | 0.852 | 0.63 | 0.59 | 0.628 | 0.721 | 0.82 | 0.729 | 0.756 | 0.645 | 0.798 | 0.863 | 0.734 | 0.61 | 0.605 | 0.672 | 0.867 | 0.631 | 0.865 | 0.72 | 0.94 | 0.59 | 0.964 | 0.895 | 0.91 | 0.743 | 0.956 | 0.858 | 0.951 | 0.789 | 0.68 | 0.762 | 0.719 | 0.918 | 0.715 | 0.803 |
| CC(C)C[C@H](NC(=O)[C@H](CCc1ccccc1)NC(=O)CN1CCOCC1)C(=O)N[C@@H](Cc1ccccc1)C(=O)N[C@@H](CC(C)C)C(=O)[C@@]1(C)CO1 [Carfilzomib] | 0.0281 | 0.356 | 0.32 | 0.0786 | 0.0754 | 0.0922 | 0.0748 | 0.11 | 0.128 | 0.113 | 0.11 | 0.0171 | 0.104 | 0.11 | 0.264 | 0.094 | 0.0918 | 0.12 | 0.105 | 0.177 | 0.0752 | 0.187 | 0.0311 | 0.18 | 0.19 | 0.07 | 0.25 | 0.157 | 0.387 | 0.638 | 0.0418 | 0.0124 | 0.0636 | 0.0656 | 0.147 | 0.095 | 0.285 | 0.25 | 0.0997 | 0.225 |
| Cc1cc(Nc2ncc(Cl)c(Nc3ccccc3S(=O)(=O)C(C)C)n2)c(OC(C)C)cc1C1CCNCC1 [Ceritinib] | 0.926 | 0.281 | 0.534 | 0.677 | 0.276 | 0.885 | 0.899 | 0.32 | 0.344 | 0.442 | 0.63 | 0.539 | 0.502 | 0.161 | 0.348 | 0.962 | 0.372 | 0.42 | 0.261 | 0.413 | 0.85 | 0.193 | 0.813 | 0.54 | 0.828 | 0.29 | 0.657 | 0.0824 | 0.877 | 0.403 | 0.966 | 0.622 | 0.837 | 0.487 | 0.0994 | 0.352 | 0.303 | 0.61 | 0.355 | 0.365 |
